A short description of data set [1]: Dye content of TMB solution, A (285 nm): amount of unrestricted benzidine rings in solution. Type of data set: physicochemical. As for the experimental part: A TMB solution was prepared having the following concentration of reagents: 3 mM TMB (Sigma, Cat #T-2885), 0.5% dimethylsulfoxide (DMSO; […] Various chemicals, used at 0.5M in the TMB solution, were compared against the betaine reagent in non-encapsulation solubilization methods. Glycine (Sigma, Cat #G8898), sarcosine (Sigma, Cat #131776), choline chloride (Sigma, Cat #C1909), L-carnitine (Sigma, Cat #C0158), 3-(1-pyridinio)-1-propanesulfonate (Sigma, Cat #82804), or the betaine N,N,N-trimethylglycine (Sigma, Cat #B2629) were all added to separate scintillation vials of TMB solution. Each TMB substrate and TMBW (available from SurModics, Inc) in an amount of 20 μL were added to individual aliquots of 980 μL of distilled water. […] Each TMB solution in an amount of 20 μL was added to individual aliquots of 980 μL of distilled water. […] To each TMB solution was added 1 mM hydroxy propyl beta-cyclodextrin (Wacker, 60082620), 3 mm hydroxy propyl beta-cyclodextrin (Wacker, 60082620), or 0.5M of the betaine N,N,N-trimethylglycine (Sigma, Cat #B2629). Each TMB substrate and TMBW (available from SurModics, Inc) in an amount of 20 μL of were added to individual aliquots of 980 μL of distilled water.

For data set [2], the target named is HRP. Description: Kinetic rate of HRP oxidation of TMB substrate on anti-peroxidase coated microwell plate, A (650 nm). Format: biochemical, horseradish. Particulars: 0-1 OD at 650 nm, 0-15 minutes. As for the experimental part: A TMB solution was prepared having the following concentration of reagents: 3 mM TMB (Sigma, Cat #T-2885), 0.5% dimethylsulfoxide (DMSO; […] Various chemicals, used at 0.5M in the TMB solution, were compared against the betaine reagent in non-encapsulation solubilization methods. Glycine (Sigma, Cat #G8898), sarcosine (Sigma, Cat #131776), choline chloride (Sigma, Cat #C1909), L-carnitine (Sigma, Cat #C0158), 3-(1-pyridinio)-1-propanesulfonate (Sigma, Cat #82804), or the betaine N,N,N-trimethylglycine (Sigma, Cat #B2629) were all added to separate scintillation vials of TMB solution. A Nunc Maxisorb 96 microwell plate (Cat #439454) was coated with 100 μL of an 850 ng/mL solution of Rabbit Anti-Peroxidase (Accurate Chemical and Scientific Corporation, Cat #ACZ001021). The plate was then coated with 150 μL of StabilCoat (SurModics, Cat #SC01) for one hour. This was then aspirated and the plate was allowed to dry overnight in a desiccation chamber. Plates were then incubated with 100 μL of 3.125 ng/mL solution of HRP in Stabilzyme HRP Conjugate stabilizer (SurModics, SZ02) for one hour, washed three times, and 100 uL of TMB substrate was added to each well. […] To each TMB solution was added 1 mM hydroxy propyl beta-cyclodextrin (Wacker, 60082620), 3 mm hydroxy propyl beta-cyclodextrin (Wacker, 60082620), or 0.5M of the betaine N,N,N-trimethylglycine (Sigma, Cat #B2629). A Nunc Maxisorb 96 microwell plate (Cat #439454) was coated with 100 μL of an 850 ng/mL solution of Rabbit Anti-Peroxidase (Accurate Chemical and Scientific Corporation, Cat #ACZ001021). The plate was then coated with 150 μL of StabilCoat (SurModics, Cat #SC01) for one hour. This was then aspirated and the plate was allowed to dry overnight in a desiccation chamber. Plates were then incubated with 100 μL of 3.125 ng/mL solution of HRP in Stabilzyme HRP Conjugate stabilizer (SurModics, SZ02) for one hour, washed three times, and 100 uL of TMB substrate was added to each well.

The conditions of data set [3]: cited from earlier work.
The mark [4] stands for this setting: Example 1: additive at 0.5M in TMB solution (3 mM TMB, 0.5% DMSO, 1.25 mM hydroxypropyl beta-cyclodextrin, 0.01% H2O2, pH 3.5), TMBW as supplied, 20 μL in 980 μL water.
The mark [5] stands for this setting: Example 1: additive at 0.5M in TMB solution (3 mM TMB, 1.25 mM hydroxypropyl beta-cyclodextrin, pH 3.5), TMBW as supplied.

Converted amounts (≈) assume the structure as drawn. Where two headings read alike, the source gives them in different places.

Results on nine compounds are retold here after patent US9588123B2, “Compositions and methods for in vitro diagnostic tests including zwitterionic solubilization reagent” (SurModics IVD, Inc., priority 2014, dated 2017).

For the compound `C[N+](C)(C)C[C@H](O)CC(=O)[O-]` (racemic) [DL-Carnitine, L-carnitine], the “Dye (A285)” value in data set [1] (setting [4]) is 0.254. In data set [2] (setting [5]), the “Kinetics (mAu/min)” value was 18.432 mAu/min.
For the compound `Cc1cc(-c2ccc(N)c(C)c2)ccc1N` [2-tolidine], in data set [3], the solubility in water was 1.3 g/L (≈ 6.12 mM).
`O=S(=O)([O-])CCC[n+]1ccccc1` [3-(1-Pyridinio)-1-propanesulfonate, 3-(1-pyridinio)-1-propanesulfonate]: the “Dye (A285)” value in data set [1] (setting [4]) came out at 1.175. The “Kinetics (mAu/min)” value in data set [2] (setting [5]) stood at 49.732 mAu/min.
Take `Nc1ccc(-c2ccc(N)cc2)cc1` [Benzidine, biphenyl-4,4′-diamine]: in data set [3] (at 100° C., in the absence of the N,N,N-trimethylglycine solubilization reagent), the solubility in water was 0.94 g/100 mL.
As for `C[N+](C)(C)CC(=O)O` [Betaine (N,N,N-trimethylglycine), N,N,N-trimethylglycine], the solubility in water result in data set [3] (at 25° C.) is “up to 64 g/100 mL”. For the same compound, in data set [3] (at 25° C.), the “solubility in water (molar)” value is roughly 5500 mM. Besides, the “Dye (A285)” value was determined as 0.974 in data set [1] (setting [4]); 0.35 in data set [1] (Example 2: 0.25M N,N,N-trimethylglycine, 3 mM TMB, 0.5% DMSO, pH 3.5); 0.535 in data set [1] (Example 2: 0.5M N,N,N-trimethylglycine, 3 mM TMB, 0.5% DMSO, pH 3.5); 0.85 in data set [1] (Example 2: 1M N,N,N-trimethylglycine, 3 mM TMB, 0.5% DMSO, pH 3.5); 1.061 in data set [1] (Example 3: 0.5M additive in 3 mM TMB, 0.5% DMSO, 0.01% H2O2, pH 3.5). The “Kinetics (mAu/min)” value amounted to 71.917 mAu/min in data set [2] (setting [5]) and 71.739 mAu/min in data set [2] (Example 3: 0.5M additive in 3 mM TMB solution, pH 3.5).
With `C[N+](C)(C)CCO.[Cl-]` [Choline Chloride, choline chloride], in data set [1] (setting [4]), the “Dye (A285)” value is recorded as 1.074. Further, in data set [2] (setting [5]), the “Kinetics (mAu/min)” value is listed as 2.855 mAu/min.
For `NCC(=O)O` [Glycine] the same measures were 0.358 and 41.16 mAu/min.
For `CNCC(=O)O` [Sarcosine, sarcosine] the same measures were 0.45 and 45.014 mAu/min.
For “hydroxy propyl beta-cyclodextrin [Beta Cyclodextrin]”, the “Dye (A285)” value in data set [1] (Example 3: 1 mM additive in 3 mM TMB, 0.5% DMSO, 0.01% H2O2, pH 3.5) is on record as 0.339; in data set [1] (Example 3: 3 mM additive in 3 mM TMB, 0.5% DMSO, 0.01% H2O2, pH 3.5), 0.78. Besides, the “Kinetics (mAu/min)” value in data set [2] (Example 3: 1 mM additive in 3 mM TMB solution, pH 3.5) was found to be 39.697 mAu/min; in data set [2] (Example 3: 3 mM additive in 3 mM TMB solution, pH 3.5), 49.775 mAu/min.
